In the pKa sets of Baltruschat and Czodrowski (2020) one finds pKa data, which are given here for 68 compounds.

For the compound `CC(C)(O)C(=O)O`, the pKa (acidic group) was found to be 4.04. In the case of `OCCc1cnc(P(c2ncc(CCO)[nH]2)c2[nH]c(CCO)c[nH+]2)[nH]1`, the pKa (basic group) is 6.84. As to `CC(=O)N(C)c1nnc(S(N)(=O)=O)s1`, the pKa (acidic group) was 7.4. On the same count and under the same terms, under `O=C(O)C12CCC(C1)C2` stands 3.96. For the compound `CCN(CC)c1ccccc1`, the pKa (basic group) stood at 6.6. For the compound `CC[NH+](CC)CCCC(C)Nc1cc(OC)cc2cccnc12` (configuration not stated), under “basic group”, the pKa came out at 3.63. In turn, `CN(C)C1CC(C)(C)NC(C)(C)C1` yielded a pKa (basic group) of 10.6. Still for that read-out and setting: under `CNCC[NH2+]C` stands 7.29.

For `OC(c1ccncc1)(c1ccncc1)c1cccnc1`, for the setting “acidic group”, the pKa amounted to 11.9. The compound `CC(C)[NH2+]CC(O)c1cccc(N)c1` (configuration not stated) gave a pKa (basic group) of 4.22. Compound `O=C(O)Cn1c2ccccc2c2ccccc21` yielded a pKa (acidic group) of 3.55.

As to `[O-]c1ncc2[nH]cnc2n1`, the pKa came out at 11.9 (acidic group) and 8.43 (basic group). `COc1cc(S(C)=O)ccc1-c1cn2ccncc2n1` (configuration not stated): the pKa (basic group) stood at 2.88. Take `[O-]c1nc(O)nn1-c1ccccc1`: the pKa (acidic group) worked out at 12.2. As for `c1ccc(-c2ccnc3c2ccc2c(-c4ccccc4)ccnc23)cc1`, the pKa (basic group) turned out to be 4.84. The same measure, in the same setting: under `CC[NH+](CC)Cc1cn2nc(-c3ccccc3)cc(C)c2n1` stands 2.2.

Compound `NCc1cccc(S(N)(=O)=O)c1` had a pKa (acidic group) of 10.1 and a pKa (basic group) of 8.55. `Nc1ccc(O)cc1O`: the pKa reads like this: (acidic group) 9.3; (basic group) 5.7. In turn, `O=C([O-])c1cnc2ccccc2c1` showed a pKa (basic group) of 4.68. Same read-out and setting: under `COc1ccc(NCCS)cc1` stands 5.3. Still for that read-out and setting: under `OC(CN1CCOCC1)CN1CCOCC1` stands 6.98. For the setting “acidic group”, `Oc1cn[nH+]c2ccccc12` displayed a pKa of -0.35. On to `C[C@H](N)CCC(=O)[O-]`, for which, where the note is “basic group”, the pKa was 10.4. On the same count and under the same terms, under `CN1CC[NH2+]CC1` stands 5.05. Still for that read-out and setting: under `CCN(C)CCOCCN(C)C` stands 9.65; under `N[C@H]1CCC[C@H](O)C1`, 10.1. With `CCc1cc(C(C)C)c(O)cc1C`, the pKa (acidic group) was determined as 10.9. Compound `Nc1ccnc(-c2cc(N)ccn2)c1` displayed a pKa (basic group) of 8.8. Still for that read-out and setting: under `C=C[C@]1(O)CN2CC[C@H]1C[C@H]2[C@H](O)c1cc([O-])[nH+]c2ccccc12` stands 7.65. Take `CCCCCCCCC(=O)OO`: the pKa (acidic group) was determined as 8.23. `[NH3+]CCC(=O)NC(Cc1c[nH]cn1)C(=O)[O-]` (configuration not stated) displayed a pKa (basic group) of 7.08. Same read-out and setting: under `N[C@H]1CCc2ccccc21` stands 9.21. The same measure, in the same setting: under `NNC(=O)[C@H](Cc1c[nH]c[nH+]1)NC(=O)OCc1ccccc1` stands 2.5; under `O=[N+]([O-])c1ccc(-c2ncc(-c3ccccc3)o2)cc1`, -0.61. On the same count and under the same terms, under `Cc1cc([O-])[n+](C)c([O-])n1` stands 10.1; under `O=C([O-])C[NH+](CC(=O)[O-])Cc1nc2ccccc2[nH]1`, 3.95. `COc1cc(C[NH3+])c(C)cc1N` came in with a pKa (basic group) of 4.26. `C/C(=N/O)c1cc(C)c(C)cc1O` returned a pKa (acidic group) of 8.2. `Nc1ccc[nH+]c1` showed a pKa (basic group) of -1.37. The same measure, in the same setting: under `C=CC(C)(C)Nc1ccccc1` stands 4.88. Same read-out and setting: under `Cc1cc(C)c(C[NH3+])cc1N` stands 4.57. `O=[N+]([O-])c1cccc(-c2nnn[nH]2)c1` showed a pKa (acidic group) of 3.25.

Where the note is “basic group”, `CCN(CC)CC(=O)Nc1ccc(C)cc1` came in with a pKa of 8.13. In the case of `O=[N+]([O-])c1ccc(NC=S)cc1`, the pKa (acidic group) was 10.1. Under “basic group”, `CC[NH+](CC)CCNc1nc(N)nc(C)c1C` gave a pKa of 7.9. For the compound `Cc1nccc2c1[nH]c1ccccc12`, the pKa runs as follows: (acidic group) 14.5; (basic group) 6.55. `O=[N+]([O-])c1ccc(-n2cnnn2)cc1` had a pKa (basic group) of -3.92. `CCC(=O)CC(=O)CC` showed a pKa (acidic group) of 9.82. Same read-out and setting: under `N#Cc1cccc(-c2nnn[nH]2)c1` stands 3.45. Same read-out and setting: under `CCCc1c(-c2ccccc2)nn(-c2ccccc2)c1O` stands 7. `CO/N=C(\C)CC(C)(C)NCC[NH2+]C(C)(C)C/C(C)=N/O` registered a pKa (basic group) of 6.28.

Under “basic group”, `CCN(CC)CCCC(C)=O` showed a pKa of 10.1. On to `COc1cccc(N)c1`, for which the pKa (basic group) is 4.23. On the same count and under the same terms, under `OCn1cnc2ccccc21` stands 5.44. As for `CN(C)c1ccc(NC=S)cc1`, where the note is “acidic group”, the pKa turned out to be 12. As for `C[C@H]1CN[C@@H](C)CN1`, the pKa (basic group) was determined as 9.98. With `OC(C[S-])CS`, the pKa (acidic group) worked out at 10.7. For the setting “basic group”, `CN(C)c1ccccc1` yielded a pKa of 5.1. The compound `Cc1cc(C(C)C)ccc1O` had a pKa (acidic group) of 10.6. On the same count and under the same terms, under `CN(C)C(=O)CC(=O)c1ccncc1` stands 7.75. As for `Cc1ncc(C[NH3+])c(N)n1`, under “basic group”, the pKa came to 4. With `CC(O)CNCC[NH3+]` (configuration not stated), the pKa (basic group) is 6.94.

For the setting “basic group”, `CNCCN(C)CCNC` yielded a pKa of 10.4. `CC(=O)OO` gave a pKa (acidic group) of 8.19. With `CCOc1ccc2nccc([C@@H](O)[C@@H]3C[C@H]4CCN3C[C@@H]4CC)c2c1`, the pKa (basic group) was 8.5. The same measure, in the same setting: under `[O-]c1ccccn1` stands 11.7; under `CCN(CC)CC1CO1` (configuration not stated), 8.55; under `Cc1cccc(C(=O)[O-])n1`, 5.8.

In general, pKa refers to the negative logarithm of the acid dissociation constant.
